Laboratory results taken from US12590062B2, “PD-1/PD-L1 inhibitors” (Gilead Sciences, Inc., priority 2017, dated 2026).
pEC50, pIC50: −log10 of the molar value.

Tests used:
PD-L1 = biological target: T1, PD-L1 (Homo sapiens, UniProt Q9NZQ7); assay: PD-L1/PD-L1 dimerization biochemical protein-protein interaction assay (ALPHA); format: binding; details: compound-induced PD-L1 dimerization, head prints '1 nM' (0.5 nM His-tagged PD-L1 and 0.5 nM FLAG-tagged PD-L1), read-out: AC50 PDL1 Dimer Alpha 1 nM
T1 construct: determine if they can specifically dimerize the extracellular domains of PD-L1
Summary of the method: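 ALPHA proximity assay of compound-induced dimerization of 0.5 nM His-tagged and 0.5 nM FLAG-tagged PD-L1 extracellular domains in Hepes pH 7.4 buffer, 2 h at 25 °C. Anti-His acceptor then anti-FLAG donor beads, 60 min each; AC50 from four-parameter fit.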

[1] = biological target: T2, interaction between the recombinant extracellular domain (ECD) of PD-1 and native cell-bound PD-L1 (Homo sapiens, UniProt Q9NZQ7); assay: CHO/PD-L1 cell capture assay; format: cell-based; details: CHO cells overexpressing PD-L1, pre-incubated 1 hr with compound, captured on biotinylated Fc-PD-1 coated plates, 75 min at room temperature
T2 construct: expressed in transfected cells
Summary of the method: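 CHO cells stably overexpressing PD-L1 were pre-incubated 1 hr with compound, then captured 75 min at room temperature on biotinylated Fc-PD-1 ECD bound to streptavidin plates. After glutaraldehyde/Draq5 fixation-staining, captured cells were counted by high-content microscopy; EC50 from four-parameter dose-response fits.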

PD-1/PD-L1 = PD-1/PD-L1 (Homo sapiens, UniProt Q9NZQ7); assay: PD-1/PD-L1 biochemical protein-protein interaction assay (ALPHA); format: binding; details: 0.3 nM His tagged PD-L1, 2.5 nM biotinylated Fc-PD-1, 60 minutes at 25° C., read-out: IC50 PD-L1-PD-1 Alpha IC50-mono PD-L1-fcP-D1
Summary of the method: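 Final concentrations 0.3 nM His-tagged PD-L1 and 2.5 nM biotinylated Fc-PD-1 (extracellular domains) were reacted with compound for 60 min at 25° C in pH 7.4 Hepes/NaCl/EDTA/Tween/BSA buffer. Binding was then detected by ALPHA beads, and IC50 values were taken from four-parameter curve fitting.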

PD-1/PD-L1 interaction = biological target: T3, PD-1/PD-L1 interaction (Homo sapiens, UniProt Q9NZQ7); assay: PD-1/PD-L1 NFAT reporter co-culture assay; format: cell-based; details: Jurkat PD-1 NFAT-luciferase cells co-cultured with aAPC-PD-L1 CHO cells, 6 hrs at 37° C.; read-out: EC50 NFAT Luciferase
T3 construct: expressed in transfected cells; host or cells: CHO cells (aAPC-PD-L1) co-cultured with Jurkat cells overexpressing PD-1 and an NFAT-luciferase reporter
Summary of the method: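 Jurkat cells overexpressing PD-1 with NFAT-driven luciferase were mixed with compound in RPMI 1640/2% FBS and seeded onto overnight-plated CHO aAPC-PD-L1 cells expressing surface anti-CD3 and PD-L1. Co-culture ran 6 h at 37 °C; luminescence read with ONE-Glo; EC50 from four-parameter fit.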

Sequence of PD-1/PD-L1 (Q9NZQ7 19-238 limits assumed): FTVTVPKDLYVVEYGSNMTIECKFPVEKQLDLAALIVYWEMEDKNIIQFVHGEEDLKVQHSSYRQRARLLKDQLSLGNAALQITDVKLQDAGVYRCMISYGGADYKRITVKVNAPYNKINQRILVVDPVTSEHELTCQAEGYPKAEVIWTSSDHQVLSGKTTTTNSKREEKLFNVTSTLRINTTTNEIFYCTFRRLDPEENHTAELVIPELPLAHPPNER
T1 sequence (Q9NZQ7 19-238 limits assumed): as above
T1 sequence (Q9NZQ7 19-238 limits assumed): as above
T3 sequence (Q9NZQ7 19-290): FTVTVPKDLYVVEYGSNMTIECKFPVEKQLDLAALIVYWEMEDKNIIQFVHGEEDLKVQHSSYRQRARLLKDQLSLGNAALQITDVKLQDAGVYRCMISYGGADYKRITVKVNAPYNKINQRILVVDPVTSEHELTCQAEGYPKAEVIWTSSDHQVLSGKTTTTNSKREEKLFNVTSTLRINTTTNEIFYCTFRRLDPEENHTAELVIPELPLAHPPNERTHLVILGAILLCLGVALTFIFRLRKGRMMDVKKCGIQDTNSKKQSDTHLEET
T2 sequence (Q9NZQ7 19-290): as above

Row | Structure (SMILES) | AC50 (PD-L1) [nM] | pEC50 [1] | pIC50 (PD-1/PD-L1) | pEC50 (PD-1/PD-L1 interaction)
1 | N#Cc1cncc(COc2nc(O[C@H]3CCc4c(-c5cccc6c5CC[C@@H]6Oc5nc(OCc6cncc(C#N)c6)c(CNC[C@@H](O)CC(=O)O)cc5Br)cccc43)c(Br)cc2CNC[C@@H](O)CC(=O)O)c1 [Example 4, (3S,3′S)-4,4′-((((((1S,1′S)-2,2′,3,3′-tetrahydro-1H,1′H-[4,4′-biindene]-1,1′-diyl)bis(oxy))bis(5-bromo-2-((5-cyanopyridin-3-yl)methoxy)pyridine-6,3-diyl))bis(methylene))bis(azanediyl))bis(3-hydroxybutanoic acid)] | 67.2 | 7.81 | 10.00 | 7.77
2 | COc1nc(O[C@H]2CCc3c(-c4cccc5c4CC[C@@H]5Oc4nc(OC)c(CNC[C@@H](O)CC(=O)O)cc4Cl)cccc32)c(Cl)cc1CNC[C@@H](O)CC(=O)O [Example 6, (3S,3′S)-4,4′-((((((1S,1′S)-2,2′,3,3′-tetrahydro-1H,1′H-[4,4′-biindene]-1,1′-diyl)bis(oxy))bis(5-chloro-2-methoxypyridine-6,3-diyl))bis(methylene))bis(azanediyl))bis(3-hydroxybutanoic acid)] | 90.9 | 7.20 | 10.00 | 6.83
3 | COc1nc(O[C@H]2CCc3c(-c4cccc5c4CC[C@@H]5Oc4nc(OC)c(CNC[C@@H](O)CC(=O)O)cc4Br)cccc32)c(Br)cc1CNC[C@@H](O)CC(=O)O [Example 7, (3S,3′S)-4,4′-((((((1S,1′S)-2,2′,3,3′-tetrahydro-1H,1′H-[4,4′-biindene]-1,1′-diyl)bis(oxy))bis(5-bromo-2-methoxypyridine-6,3-diyl))bis(methylene))bis(azanediyl))bis(3-hydroxybutanoic acid)] | 140 | 7.25 | 10.00 | 7.05
4 | Cc1c(COc2cc(OCc3cncc(C#N)c3)c(CNC[C@@H](O)CC(=O)O)cc2Cl)cccc1-c1cccc(-c2ccc(OCCNC[C@@H](O)CC(=O)O)cc2)c1C [Example 16, (S)-4-((4-((4″-(2-(((S)-3-carboxy-2-hydroxypropyl)amino)ethoxy)-2,2′-dimethyl-[1,1′:3′,1″-terphenyl]-3-yl)methoxy)-5-chloro-2-((5-cyanopyridin-3-yl)methoxy)benzyl)amino)-3-hydroxybutanoic acid] | 100 | 8.22 | 10.00 | 7.06
5 | Cc1c(COc2nc(OCCc3cncnc3)c(CNC[C@@H](O)CC(=O)O)cc2Br)cccc1-c1cccc(COc2nc(OCCc3cncnc3)c(CNC[C@@H](O)CC(=O)O)cc2Br)c1C [Example 127, (3S,3′S)-4,4′-((((((2,2′-dimethyl-[1,1′-biphenyl]-3,3′-diyl)bis(methylene))bis(oxy))bis(5-bromo-2-(2-(pyrimidin-5-yl)ethoxy)pyridine-6,3-diyl))bis(methylene))bis(azanediyl))bis(3-hydroxybutanoic acid)] | 166 | 7.16 | 9.70 | 6.71
6 | Cc1c(COc2nc(OCC3COC3)c(CNC[C@@H](O)CC(=O)O)cc2Br)cccc1-c1cccc(COc2nc(OCC3COC3)c(CNC[C@@H](O)CC(=O)O)cc2Br)c1C [Example 132, (3S,3′S)-4,4′-((((((2,2′-dimethyl-[1,1′-biphenyl]-3,3′-diyl)bis(methylene))bis(oxy))bis(5-bromo-2-(oxetan-3-ylmethoxy)pyridine-6,3-diyl))bis(methylene))bis(azanediyl))bis(3-hydroxybutanoic acid)] | 279 | 6.71 | 9.52 | 6.41
7 | Cc1c(COc2cc(OCc3cncc(C#N)c3)c(CNC[C@H](O)CC(=O)O)cc2Cl)cccc1-c1cccc(COc2cc(OCc3cncc(C#N)c3)c(CNC[C@H](O)CC(=O)O)cc2Cl)c1C [Example 162, (3R,3′R)-4,4′-((((((2,2′-dimethyl-[1,1′-biphenyl]-3,3′-diyl)bis(methylene))bis(oxy))bis(5-chloro-2-((5-cyanopyridin-3-yl)methoxy)-4,1-phenylene))bis(methylene))bis(azanediyl))bis(3-hydroxybutanoic acid)] | 236 | 6.58 | 9.70 | 6.80
8 | COc1nc(OCc2cccc(-c3cccc(COc4nc(OC)c(CNC[C@@H](O)C(=O)O)cc4Cl)c3C)c2C)c(Cl)cc1CNC[C@@H](O)C(=O)O [Example 167, (2R,2′R)-3,3′-((((((2,2′-dimethyl-[1,1′-biphenyl]-3,3′-diyl)bis(methylene))bis(oxy))bis(5-chloro-2-methoxypyridine-6,3-diyl))bis(methylene))bis(azanediyl))bis(2-hydroxypropanoic acid)] | ≥ 10000 | 7.21 | 8.66 | 6.96
9 | COc1nc(OCc2cccc(-c3cccc(COc4nc(OC)c(CNCC(=O)O)cc4Cl)c3C)c2C)c(Cl)cc1CNCC(=O)O [Example 178, 2,2′-((((((2,2′-dimethyl-[1,1′-biphenyl]-3,3′-diyl)bis(methylene))bis(oxy))bis(5-chloro-2-methoxypyridine-6,3-diyl))bis(methylene))bis(azanediyl))diacetic acid] | ≥ 10000 | 7.15 | 9.70 | 6.94
10 | Cc1c(COc2cc(OCc3cncc(C#N)c3)c(CNC[C@H](O)C(=O)O)cc2Cl)cccc1-c1cccc(COc2cc(OCc3cncc(C#N)c3)c(CNC[C@H](O)C(=O)O)cc2Cl)c1C [Example 213, (2S,2′S)-3,3′-((((((2,2′-dimethyl-[1,1′-biphenyl]-3,3′-diyl)bis(methylene))bis(oxy))bis(5-chloro-2-((5-cyanopyridin-3-yl)methoxy)-4,1-phenylene))bis(methylene))bis(azanediyl))bis(2-hydroxypropanoic acid)] | 255 | 6.78 | 8.80 | 6.74
11 | COc1cc(OCc2cccc(-c3cccc(COc4cc(OC)c(CNC[C@@H](O)CC(=O)O)cc4Cl)c3C)c2C)c(Cl)cc1CNC[C@@H](O)CC(=O)O [Example 214, (3S,3′S)-4,4′-((((((2,2′-dimethyl-[1,1′-biphenyl]-3,3′-diyl)bis(methylene))bis(oxy))bis(5-chloro-2-methoxy-4,1-phenylene))bis(methylene))bis(azanediyl))bis(3-hydroxybutanoic acid)] | 188 | 7.65 | 9.70 | 6.76
12 | Cc1c(COc2nc(OCc3cncc(C#N)c3)c(CNC[C@@H](O)CC(=O)O)cc2Br)cccc1-c1cccc(COc2nc(OCc3cncc(C#N)c3)c(CNC[C@@H](O)CC(=O)O)cc2Br)c1C [Example 240, (3S,3′S)-4,4′-((((((2,2′-dimethyl-[1,1′-biphenyl]-3,3′-diyl)bis(methylene))bis(oxy))bis(5-bromo-2-((5-cyanopyridin-3-yl)methoxy)pyridine-6,3-diyl))bis(methylene))bis(azanediyl))bis(3-hydroxybutanoic acid)] | 367 | 6.66 | 9.40 | 6.97
13 | Cc1c(COc2cc(OCc3cncc(C#N)c3)c(CNC(CO)(CO)CO)cc2Cl)cccc1-c1cccc(COc2cc(OCc3cncc(C#N)c3)c(CNC(CO)(CO)CO)cc2Cl)c1C [Example 282, 5,5′-((((((2,2′-dimethyl-[1,1′-biphenyl]-3,3′-diyl)bis(methylene))bis(oxy))bis(4-chloro-6-(((1,3-dihydroxy-2-(hydroxymethyl)propan-2-yl)amino)methyl)-3,1-phenylene))bis(oxy))bis(methylene))dinicotinonitrile] | 327 | 6.60 |  | 6.33
